Experimental data taken from patent US11452717B2, “Small molecule activators of nicotinamide phosphoribosyltransferase (NAMPT) and uses thereof” (Sanford Burnham Prebys Medical Discovery Institute, priority 2017, dated 2022).

What follows are compounds tested against NAMPT enzyme (Homo sapiens (Human), UniProt P43490) (assay: Enzyme Assay and NMN Detection (NAMPT reaction, fluorescence detection of NMN)). Conditions: Table B-1; NAMPT activation, NMN formation.
NAMPT enzyme, sequence (P43490 whole entry, species assumed): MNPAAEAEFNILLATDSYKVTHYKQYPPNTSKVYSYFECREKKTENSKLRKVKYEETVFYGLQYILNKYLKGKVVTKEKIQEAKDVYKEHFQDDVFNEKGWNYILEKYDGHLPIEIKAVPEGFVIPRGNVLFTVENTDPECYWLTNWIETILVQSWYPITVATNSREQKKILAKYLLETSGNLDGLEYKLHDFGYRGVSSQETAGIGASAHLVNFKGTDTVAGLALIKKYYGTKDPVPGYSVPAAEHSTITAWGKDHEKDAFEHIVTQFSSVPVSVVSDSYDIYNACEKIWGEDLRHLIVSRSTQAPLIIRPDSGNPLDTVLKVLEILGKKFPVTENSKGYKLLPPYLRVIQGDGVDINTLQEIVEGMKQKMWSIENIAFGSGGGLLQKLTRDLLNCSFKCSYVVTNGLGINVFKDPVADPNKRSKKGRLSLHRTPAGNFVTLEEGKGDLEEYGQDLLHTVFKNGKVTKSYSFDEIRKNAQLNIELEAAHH
Assay type: biochemical
Procedure, shortened: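 NMN formed was read at ex380/em460 after acetophenone/KOH derivatization and formic acid addition, using a same-day calibration curve. Final conditions: NAMPT 16 nM, nicotinamide 5 uM, PRPP 6.25 uM, ATP 120 uM, pyrophosphatase 0.04 U/ml, pH 7.5 HEPES buffer with MgCl2 and TCEP, 2 h at room temperature.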
For CCOC(=O)c1ccc(NC(=O)NCc2c(C)noc2C)cc1 [Ethyl 4-(3-((3,5-dimethylisoxazol-4-yl)methyl)ureido)benzoate], the EC50 was > 20000 nM. In the case of CCOC(=O)c1ccc(NC(=O)NCc2c[nH]nc2N)cc1 [Ethyl 4-(3-((3-amino-1H-pyrazol-4-yl)methyl)ureido)benzoate], the EC50 is reported as > 20000 nM. CCOC(=O)c1ccc(NC(=O)NCc2c[nH]nc2C)cc1 [Ethyl 4-(3-((3-methyl-1H-pyrazol-4-yl)methyl)ureido)benzoate] was tested, and the EC50 was > 20000 nM. CCOC(=O)c1ccc(NC(=O)NCc2cocn2)cc1 [Ethyl 4-(3-(oxazol-4-ylmethyl)ureido)benzoate] was tested, and the EC50 was > 20000 nM. With O=C(NCc1cn[nH]c1)Nc1ccc(S(=O)(=O)NCc2ccccc2Cl)cc1 [N-(2-Chloro-benzyl)-4-[3-(1H-pyrazol-4-ylmethyl)-ureido]-benzenesulfonamide] the EC50 was < 100 nM. COc1ccccc1CNS(=O)(=O)c1ccc(NC(=O)NCc2cn[nH]c2)cc1 [N-(2-Methoxy-benzyl)-4-[3-(1H-pyrazol-4-ylmethyl)-ureido]-benzenesulfonamide] was tested, and the EC50 was < 100 nM.

Same assay, conditions: Table B-2; NAMPT activation, NMN formation
With CCOC(=O)c1ccc(NC(=O)NCc2ccnc(OC)c2)cc1 [Ethyl 4-(3-((2-methoxypyridin-4-yl)methyl)ureido)benzoate] the EC50 was > 20000 nM. In the case of CCOC(=O)c1ccc(NC(=O)NCc2ccnc(C)c2)cc1 [Ethyl 4-(3-((2-methylpyridin-4-yl)methyl)ureido)benzoate], the EC50 is reported as > 20000 nM. CCOC(=O)c1ccc(NC(=O)NCc2ccncc2N)cc1 [Ethyl 4-(3-((3-aminopyridin-4-yl)methyl)ureido)benzoate] was tested, and the EC50 was > 20000 nM. In the case of CCOC(=O)c1ccc(NC(=O)NCc2ccncc2Cl)cc1 [Ethyl 4-(3-((3-chloropyridin-4-yl)methyl)ureido)benzoate], the EC50 is reported as > 20000 nM. For CCOC(=O)c1ccc(NC(=O)NCc2ccncc2F)cc1 [Ethyl 4-(3-((3-fluoropyridm-4-yl)methyl)ureido)benzoate], the EC50 was 100 to 2000 nM. CCOC(=O)c1ccc(NC(=O)NCc2ccncc2C)cc1 [Ethyl 4-(3-((3-methylpyridin-4-yl)methyl)ureido)benzoate] was tested, and the EC50 was > 20000 nM. In the case of COC(=O)c1ccc(NC(=O)c2ccc(NC(=O)NCc3ccncc3)cc2)cc1 [Methyl 4-(4-(3-(pyridin-4-ylmethyl)ureido)benzamido)benzoate], the EC50 is reported as 100 to 2000 nM. For O=C(NCc1ccncc1)Nc1ccc(S(=O)(=O)N(Cc2ccccc2)Cc2ccccc2)cc1 [N,N-Dibenzyl-4-(3-pyridin-4-ylmethyl-ureido)-benzenesulfonamide], the EC50 was > 20000 nM. Compound CN(C)S(=O)(=O)c1ccc(NC(=O)NCc2ccncc2)cc1 [N,N-Dimethyl-4-(3-pyridin-4-ylmethy-ureido)-benzenesulfonamide] has an EC50 of 2000 to 5000 nM. With CCN(CC)C(=O)c1ccc(NC(=O)NCc2ccncc2)cc1 [N,N-diethyl-4-(3-(pyridin-4-ylmethyl)ureido)benzamide] the EC50 was > 20000 nM. For CN(C)C(=O)c1ccc(NC(=O)NCc2ccncc2)cc1 [N,N-dimethyl-4-(3-(pyridin-4-ylmethyl)ureido)benzamide], the EC50 was > 20000 nM. With CN(C)S(=O)(=O)c1ccc(CNS(=O)(=O)c2ccc(NC(=O)NCc3ccncc3)cc2)cc1 [N,N-dimethyl-4-((4-(3-(pyridin-4-ylmethyl)ureido)phenylsulfonamido)methyl)benzenesulfonamide] the EC50 was 100 to 2000 nM. Compound CC(NS(=O)(=O)c1ccc(NC(=O)NCc2ccncc2)cc1)C1CCC1 (centres unmarked) [N-(1-Cyclobutyl-ethyl)-4-(3-pyridin-4-ylmethyl-ureido)-benzenesulfonamide] has an EC50 of 100 to 2000 nM. CCN1CCCC1CNS(=O)(=O)c1ccc(NC(=O)NCc2ccncc2)cc1 (centres unmarked) [N-(1-Ethyl-pyrrolidin-2-ylmethyl)-4-(3-pyridin-4-ylmethyl-ureido)-benzenesulfonamide] gave an EC50 of 100 to 2000 nM. CN1CCC(NS(=O)(=O)c2ccc(NC(=O)NCc3ccncc3)cc2)C1 (centres unmarked) [N-(1-Methyl-pyrrolidin-3-yl)-4-(3-pyridin-4-ylmethyl-ureido)-benzenesulfonamide] was tested, and the EC50 was 2000 to 5000 nM. CC(NS(=O)(=O)c1ccc(NC(=O)NCc2ccncc2)cc1)c1ccccc1 (centres unmarked) [N-(1-phenylethyl)-4-(3-(pyridin-4-ylmethyl)ureido)benzenesulfonamide] gave an EC50 of 100 to 2000 nM. For O=C(NCc1ccncc1)Nc1ccc(C(=O)Nc2ccc3c(c2)OCCO3)cc1 [N-(2,3-dihydrobenzo[b][1,4]dioxin-6-yl)-4-(3-(pyridin-4-ylmethyl)ureido)benzamide], the EC50 was 100 to 2000 nM. Work on CN(C)CCNC(=O)c1ccc(NC(=O)NCc2ccncc2)cc1 [N-(2-(dimethylamino)ethyl)-4-(3-(pyridin-4-ylmethyl)ureido)benzamide] yielded an EC50 of 5000 to 20000 nM. Work on CN(C)c1ccccc1NC(=O)c1ccc(NC(=O)NCc2ccncc2)cc1 [N-(2-(dimethylamino)phenyl)-4-(3-(pyridin-4-ylmethyl)ureido)benzamide] yielded an EC50 of 100 to 2000 nM. Work on O=C(NCc1ccncc1)Nc1ccc(C(=O)NCCN2CCCCC2)cc1 [N-(2-(piperidin-1-yl)ethyl)-4-(3-(pyridin-4-ylmethyl)ureido)benzamide] yielded an EC50 of 2000 to 5000 nM. O=C(NCc1ccncc1)Nc1ccc(S(=O)(=O)NCc2ccccc2Cl)cc1 [N-(2-Chloro-benzyl)-4-(3-pyridin-4-ylmethyl-ureido)-benzenesulfonamide] was tested, and the EC50 was < 100 nM. With CN(Cc1ccccc1Cl)S(=O)(=O)c1ccc(NC(=O)NCc2ccncc2)cc1 [N-(2-Chloro-benzyl)-N-methyl-4-(3-pyridin-4-ylmethyl-ureido)-benzenesulfonamide] the EC50 was < 100 nM. For N#Cc1ccccc1CNS(=O)(=O)c1ccc(NC(=O)NCc2ccncc2)cc1 [N-(2-Cyano-benzyl)-4-(3-pyridin-4-ylmethyl-ureido)-benzenesulfonamide], the EC50 was 100 to 2000 nM. In the case of CN(C)c1ccccc1CNS(=O)(=O)c1ccc(NC(=O)NCc2ccncc2)cc1 [N-(2-Dimethylamino-benzyl)-4-(3-pyridin-4-ylmethyl-ureido)-benzenesulfonamide], the EC50 is reported as < 100 nM. For CN(C)CCNS(=O)(=O)c1ccc(NC(=O)NCc2ccncc2)cc1 [N-(2-Dimethylamino-ethyl)-4-(3-pyridin-4-ylmethyl-ureido)-benzenesulfonamide], the EC50 was 100 to 2000 nM. With CN(Cc1ccccc1F)S(=O)(=O)c1ccc(NC(=O)NCc2ccncc2)cc1 [N-(2-Fluoro-benzyl)-N-methyl-4-(3-pyridin-4-ylmethyl-ureido)-benzenesulfonamide] the EC50 was < 100 nM. O=C(NCc1ccncc1)Nc1ccc(S(=O)(=O)NCCO)cc1 [N-(2-Hydroxy-ethyl)-4-(3-pyridin-4-ylmethyl-ureido)-benzenesulfonamide] gave an EC50 of 2000 to 5000 nM. Compound CN(CCO)S(=O)(=O)c1ccc(NC(=O)NCc2ccncc2)cc1 [N-(2-Hydroxy-ethyl)-N-methyl-4-(3-pyridin-4-ylmethyl-ureido)-benzenesulfonamide] has an EC50 of 100 to 2000 nM. In the case of COc1ccccc1CN(C)S(=O)(=O)c1ccc(NC(=O)NCc2ccncc2)cc1 [N-(2-Methoxy-benzyl)-N-methyl-4-(3-pyridin-4-ylmethyl-ureido)-benzenesulfonamide], the EC50 is reported as < 100 nM. In the case of COCCNS(=O)(=O)c1ccc(NC(=O)NCc2ccncc2)cc1 [N-(2-Methoxy-ethyl)-4-(3-pyridin-4-ylmethyl-ureido)-benzenesulfonamide], the EC50 is reported as 100 to 2000 nM. COc1ccccc1NS(=O)(=O)c1ccc(NC(=O)NCc2ccncc2)cc1 [N-(2-Methoxy-phenyl)-4-(3-pyridin-4-ylmethyl-ureido)-benzenesulfonamide] showed an EC50 of 100 to 2000 nM. For Cc1ccccc1CNS(=O)(=O)c1ccc(NC(=O)NCc2ccncc2)cc1 [N-(2-Methyl-benzyl)-4-(3-pyridin-4-ylmethyl-ureido)-benzenesulfonamide], the EC50 was 100 to 2000 nM. O=C(NCc1ccncc1)Nc1ccc(S(=O)(=O)NCCN2CCOCC2)cc1 [N-(2-Morpholin-4-yl-ethyl)-4-(3-pyridin-4-ylmethyl-ureido)-benzenesulfonamide] was tested, and the EC50 was 100 to 2000 nM. With O=C(NCc1ccncc1)Nc1ccc(S(=O)(=O)NCCN2CCCCC2)cc1 [N-(2-Piperidin-1-yl-ethyl)-4-(3-pyridin-4-ylmethyl-ureido)-benzenesulfonamide] the EC50 was 2000 to 5000 nM. O=C(NCc1ccncc1)Nc1ccc(C(=O)NCc2ccccc2Cl)cc1 [N-(2-chlorobenzyl)-4-(3-(pyridin-4-ylmethyl)ureido)benzamide] was tested, and the EC50 was > 20000 nM. O=C(NCc1ccncc1)Nc1ccc(C(=O)Nc2ccccc2Cl)cc1 [N-(2-chlorophenyl)-4-(3-(pyridin-4-ylmethyl)ureido)benzamide] gave an EC50 of 100 to 2000 nM. O=C(NCc1ccncc1)Nc1ccc(C(=O)NCc2ccccc2F)cc1 [N-(2-fluorobenzyl)-4-(3-(pyridin-4-ylmethyl)ureido)benzamide] was tested, and the EC50 was 2000 to 5000 nM. O=C(NCc1ccncc1)Nc1ccc(S(=O)(=O)NCc2ccccc2F)cc1 [N-(2-fluorobenzyl)-4-(3-(pyridin-4-ylmethyl)ureido)benzenesulfonamide] was tested, and the EC50 was 100 to 2000 nM.

Same assay, conditions: Table B-3; NAMPT activation, NMN formation
For CCOC(=O)c1ccc(NC(=O)NCc2ccncc2Cl)cc1 [Ethyl 4-(3-((3-chloropyridin-4-yl)methyl)ureido)benzoate], the EC50 was > 20000 nM. For CCOC(=O)c1ccc(NC(=O)NCc2ccnnc2)cc1 [Ethyl 4-(3-(pyridazin-4-ylmethyl)ureido)benzoate], the EC50 was > 20000 nM. CCOC(=O)c1ccc(NC(=O)NCc2ccccn2)cc1 [Ethyl 4-(3-(pyridin-2-ylmethyl)ureido)benzoate] was tested, and the EC50 was > 20000 nM. CCOC(=O)c1ccc(NC(=O)NCc2cccnc2)cc1 [Ethyl 4-(3-(pyridin-3-ylmethyl)ureido)benzoate] was tested, and the EC50 was > 20000 nM. CCOC(=O)c1ccc(NC(=S)NCc2ccncc2)cc1 [Ethyl 4-(3-(pyridin-4-ylmethyl)thioureido)benzoate] was tested, and the EC50 was > 20000 nM. With CCOC(=O)c1ccc(NC(=O)NCc2cncnc2)cc1 [Ethyl 4-(3-(pyrimidin-5-ylmethyl)ureido)benzoate] the EC50 was > 20000 nM. CCOC(=O)c1ccc(NC(=O)NCc2ccnc3ccccc23)cc1 [Ethyl 4-(3-(quinolin-4-ylmethyl)ureido)benzoate] was tested, and the EC50 was > 20000 nM. With CCOC(=O)c1ccc(NC(=O)NCc2ccccc2)cc1 [Ethyl 4-(3-benzylureido)benzoate] the EC50 was > 20000 nM. For COC(=O)c1ccc(N(C)C(=O)NCc2ccncc2)cc1 [Methyl 4-(1-methyl-3-(pyridin-4-ylmethyl)ureido)benzoate], the EC50 was > 20000 nM.
